Positions of bridges follow the written chain, without caps; N, C: chain ends. Residues, ends and D or L forms follow the SMILES beside them. No end group written: not given here.
Key:
L. monocytogenes EGD = type: cell-based, Listeria monocytogenes; conditions: 24 h
Description: (§1) Antibacterial activity of recombinant bacteriocins against a number of Gram-positive and Gram-negative bacteria (Table S2) was determined by the method of two-fold serial dilutions in a liquid medium. Two-fold serial dilutions of bacteriocins were prepared in sterile 96-well flat-bottom polystyrene microplates (Eppendorf, Hamburg, Germany) (Cat. No. 0030730.011) in a volume of 50 µL of sterile 0.1% bovine serum albumin (BSA) (SERVA Electrophoresis GmbH, Heidelberg, Germany) to prevent non-specific sorption of peptides to the surface of the plate wells [23]. Mid-log phase bacterial cultures were diluted with the 2x Mueller-Hinton broth (MHB) (Sigma-Aldrich, St. Louis, MO, USA) to a final cell concentration of 10^6 colony forming units (CFU) per mL. To determine the activity of bacteriocins against Listeria and Enterococci, 3% tryptic soy broth (TSB) (Merck-Millipore, Burlington, MA, USA) was used instead of MHB. Aliquots of 50 μL of diluted bacterial suspensions were added to each well of the plate, which was then incubated at 37 °C and 950 rpm for 24 h using thermostatable plate shaker PST-60HL-4 (Biosan, Riga, Latvia). As a negative control, 50 µL of the sterile growth medium (2xMHB or 6% TSB) was added to the wells containing 50 µL of 0.1% BSA. The values of the minimum inhibitory concentrations (MIC) were determined as the minimum concentration of the peptide, at which there was no visible growth of bacterial culture. Incubation for 2 h with 20 µg/mL chromogenic substrate resazurin (Sigma-Aldrich, St. Louis, MO, USA) was used to detect viable bacterial cells if they were difficult to visually detect. To study the effect of inorganic salts on the antimicrobial activity of bacteriocins, antibacterial activity assay was carried out in MHB medium supplemented with 0.9% NaCl.

[1] = system: P. aeruginosa MDR CI 1995; type: cell-based; conditions: MDR CI 1995, 24 h
Description: as §1

M. luteus Ac-2229 = type: cell-based; conditions: Ac-2229, 24 h
Description: as §1

M. phlei Ac-1221 = type: cell-based; conditions: 24 h
Description: as §1

S. aureus 209P = type: cell-based; conditions: 24 h
Description: as §1

A. baumannii XDR CI 2675 = type: cell-based; conditions: XDR CI 2675, 24 h
Description: as §1

B. subtilis B-886 = type: cell-based; conditions: B-886, 24 h
Description: as §1

E. coli ML-35p = type: cell-based; conditions: 24 h
Description: as §1

B. licheniformis B-511 = type: cell-based; conditions: 24 h
Description: as §1

L. lactis MK66 = type: cell-based; conditions: MK66, 24 h
Description: as §1

E. coli ATCC 25922 = type: cell-based; conditions: ATCC 25922, 24 h
Description: as §1

E. coli SQ110 = type: cell-based; conditions: SQ110, 24 h
Description: as §1

E. coli XDR CI 1057 = type: cell-based; conditions: XDR CI 1057, 24 h
Description: as §1

L. lactis MK43 = assay: Antibacterial activity assay (MIC), two-fold serial dilutions in liquid medium; type: cell-based; conditions: for Minimum Inhibitory Concentration: MHB, 0.1% BSA, 37 °C, 24 h, no visible growth
Description: as §1

Compound	Minimum Inhibitory Concentration (L. monocytogenes EGD) [µM]	Minimum Inhibitory Concentration [1] [µM]	Minimum Inhibitory Concentration (M. luteus Ac-2229) [µM]	Minimum Inhibitory Concentration (M. phlei Ac-1221) [µM]	Minimum Inhibitory Concentration (S. aureus 209P) [µM]	Minimum Inhibitory Concentration (A. baumannii XDR CI 2675) [µM]	Minimum Inhibitory Concentration (B. subtilis B-886) [µM]	Minimum Inhibitory Concentration (E. coli ML-35p) [µM]	Minimum Inhibitory Concentration (B. licheniformis B-511) [µM]	Minimum Inhibitory Concentration (L. lactis MK66) [µM]	Minimum Inhibitory Concentration (E. coli ATCC 25922) [µM]	Minimum Inhibitory Concentration (E. coli SQ110) [µM]	Minimum Inhibitory Concentration (E. coli XDR CI 1057) [µM]	Minimum Inhibitory Concentration (L. lactis MK43) [µM]	Minimum inhibitory concentration in the presence of NaCl (B. subtilis B-886) [µM]	Minimum inhibitory concentration in the presence of NaCl (E. coli ML-35p) [µM]	Minimum inhibitory concentration in the presence of NaCl (B. licheniformis B-511) [µM]	Minimum inhibitory concentration in the presence of NaCl (L. lactis MK66) [µM]	Minimum inhibitory concentration in the presence of NaCl (E. coli SQ110) [µM]	Minimum inhibitory concentration in the presence of NaCl (L. lactis MK43; MHB supplemented with 0.9% NaCl) [µM]
CC[C@H](C)[C@H](NC(=O)[C@H](Cc1ccc(O)cc1)NC(=O)[C@@H](NC(=O)[C@@H](NC(=O)[C@H](CC(N)=O)NC(=O)[C@H](CCC(N)=O)NC(=O)[C@H](CC(=O)O)NC(=O)[C@H](Cc1ccc(O)cc1)NC(=O)[C@H](CCCCN)NC(=O)[C@@H](NC(=O)[C@H](CC(N)=O)NC(=O)[C@H](CCCCN)NC(=O)[C@H](CC(C)C)NC(=O)[C@H](CCCNC(=N)N)NC(=O)[C@@H](NC(=O)[C@H](CCCCN)NC(=O)CNC(=O)[C@H](Cc1c[nH]c2ccccc12)NC(=O)[C@H](CC(C)C)NC(=O)[C@H](CO)NC(=O)[C@H](CC(N)=O)NC(=O)[C@H](CCCCN)NC(=O)[C@@H](NC(=O)[C@H](CS)NC(=O)[C@H](Cc1c[nH]cn1)NC(=O)[C@@H](NC(=O)CNC(=O)[C@H](CC(N)=O)NC(=O)[C@@H](NC(=O)CNC(=O)[C@H](Cc1ccc(O)cc1)NC(=O)[C@H](Cc1ccc(O)cc1)NC(=O)[C@@H](NC(=O)[C@@H](N)CCCCN)[C@@H](C)O)[C@@H](C)O)C(C)C)[C@@H](C)O)C(C)C)C(C)C)[C@@H](C)O)[C@@H](C)O)C(=O)NCC(=O)N[C@@H](CCCNC(=N)N)C(=O)N[C@@H](CC(C)C)C(=O)N[C@@H](CCC(N)=O)C(=O)N[C@@H](CC(=O)O)C(=O)N[C@H](C(=O)N[C@@H](CC(C)C)C(=O)N[C@@H](CC(C)C)C(=O)NCC(=O)N[C@@H](Cc1c[nH]c2ccccc12)C(=O)N[C@@H](C)C(=O)N[C@H](C(=O)NCC(=O)N[C@@H](C)C(=O)N[C@@H](Cc1ccccc1)C(=O)NCC(=O)N[C@@H](CCCCN)C(=O)N[C@H](C(=O)N[C@@H](Cc1ccccc1)C(=O)N[C@@H](Cc1c[nH]cn1)C(=O)O)[C@@H](C)O)[C@@H](C)O)[C@@H](C)CC [OR-7(VI) (DTT reduced)] (H-KTYYGTNGVHCTKNSLWGKVRLKNVKYDQNTTYIGRLQDILLGWATGAFGKTFH-OH; N-terminus and C-terminus assumed)	>32	>32	>32	32	>32	>32	16	>32	8	4	>32	>32	>32	>32	–	–	–	–	–	–
HCTKKSLWGKVRLKNVIPGTLCRKQSLPIKQDLKILLGWATGAFGKTFH (disulfide 2-22) [AcdA(d9)]	>32	16	16	4	16	4	8	4	8	2	16	8	8	8	> 32	16	> 32	> 32	32	> 32
